Reference: article PMC8072159, “5-Bis-(2,6-difluoro-benzylidene) Cyclopentanone Acts as a Selective 11β-Hydroxysteroid Dehydrogenase one Inhibitor to Treat Diet-Induced Nonalcoholic Fatty Liver Disease in Mice” (Frontiers in Pharmacology, 2021)

Tests used:
rat 11β-HSD1 = test system: rat 11β-HSD1; set-up: method as in Lin et al., 2013; conditions: ref Lin et al., 2013; cited from earlier work
human 11β-HSD1 = test system: human 11β-HSD1; set-up: method as in Lin et al., 2013; conditions: ref Lin et al., 2013; cited from earlier work

SMILES | melting point [°C] | IC50 (rat 11β-HSD1) [nM] | IC50 (human 11β-HSD1) [nM]
O=C1/C(=C/c2cccc(Cl)c2Cl)CC/C1=C\c1cccc(Cl)c1Cl [WZS04, (2E,5E)-2,5-bis(2,3-dichlorobenzylidene) Cyclopentanone] | 204.6 to 206.8 |  | 
O=C1/C(=C/c2ccc(Cl)cc2Cl)CC/C1=C\c1ccc(Cl)cc1Cl [WZS01, (2E,5E)-2,5-bis(2,4-dichlorobenzylidene) Cyclopentanone] | 209.4 to 212 |  | 
COc1cc(OC)c(/C=C2\CC/C(=C\c3c(OC)cc(OC)cc3OC)C2=O)c(OC)c1 [WZS05, (2E,5E)-2,5-bis(2,4,6-Trimethoxybenzylidene) Cyclopentanone] | 195 to 197.8 |  | 
O=C1C(=Cc2ccccc2Br)CCC1=Cc1ccccc1Br [5-bis-(2-bromo-benzylidene) cyclopentanone] |  | 148 | 346
O=C1/C(=C/c2cc(F)ccc2F)CC/C1=C\c1cc(F)ccc1F [WZS07, (2E,5E)-2,5-bis(2,5-difluorobenzylidene) Cyclopentanone] | 208.1 to 209.8 |  | 
Cc1ccc(/C=C2\CC/C(=C\c3ccc(C)cc3C)C2=O)c(C)c1 [WZS03, (2E,5E)-2,5-bis(2,4-dimethylbenzylidene) Cyclopentanone] | 128.8 to 131.8 |  | 
